Measured values: patent publication US9944583B2, “Methods for ameliorating and preventing central nervous system inflammation” (THE REGENTS OF THE UNIVERSITY OF CALIFORNIA, priority 2007, dated 2018)
Entries after “also recorded” stand apart in the source; their conditions may differ.

What was measured:
[1] = tested on: pyramidal layer of CA1 in the aged hippocampus; experiment: in vivo superoxide production in CA1 of the aged hippocampus (DHE confocal imaging); design: species or system mouse; conditions: old mice; C3 by oral administration; apocynin
Description: Analysis of superoxide and/or hydrogen peroxide production by confocal imaging of in vivo dihydroethidium (DHE) oxidation. Mice will be injected intraperitoneally (i.p.) with dihydroethidium. Briefly, two serial i.p. injections of freshly prepared dihydroethidium (27 mg/kg) are given at 30 minute intervals. Eighteen hours later, mice are anesthetized with inhaled halothane, and are perfused intracardially with cold saline followed by 4% paraformaldehyde in PBS. Brains are removed and post-fixed in 2% paraformaldehyde for >24 h. Following fixation, brains are cut into 50 μm coronal sections and co-labeled with the appropriate primary and secondary antibodies for fluorescence visualization. […] First, an image is taken in the fluorescence channel of the ICC-fluorophor and then the channel is switched to image fluorescence from DHE oxidation. […] Using the image pairs for each field and MetaMorph software, an analyst blind to the group circles the outline of each ICC-labeled cell and then switches to the DHE oxidation image. The average fluorescence intensity for each cell of interest is logged, and values averaged to determine the mean fluorescence/cell.

NADPH oxidase = target: T1, NADPH oxidase (Mus musculus, UniProt Q61093); experiment: EPR superoxide production by forebrain synaptosomes exposed to IL-6; format: biochemical; conditions: apocynin 0.4 mM applied 5 min before IL-6
T1 sequence (Q61093 1-570): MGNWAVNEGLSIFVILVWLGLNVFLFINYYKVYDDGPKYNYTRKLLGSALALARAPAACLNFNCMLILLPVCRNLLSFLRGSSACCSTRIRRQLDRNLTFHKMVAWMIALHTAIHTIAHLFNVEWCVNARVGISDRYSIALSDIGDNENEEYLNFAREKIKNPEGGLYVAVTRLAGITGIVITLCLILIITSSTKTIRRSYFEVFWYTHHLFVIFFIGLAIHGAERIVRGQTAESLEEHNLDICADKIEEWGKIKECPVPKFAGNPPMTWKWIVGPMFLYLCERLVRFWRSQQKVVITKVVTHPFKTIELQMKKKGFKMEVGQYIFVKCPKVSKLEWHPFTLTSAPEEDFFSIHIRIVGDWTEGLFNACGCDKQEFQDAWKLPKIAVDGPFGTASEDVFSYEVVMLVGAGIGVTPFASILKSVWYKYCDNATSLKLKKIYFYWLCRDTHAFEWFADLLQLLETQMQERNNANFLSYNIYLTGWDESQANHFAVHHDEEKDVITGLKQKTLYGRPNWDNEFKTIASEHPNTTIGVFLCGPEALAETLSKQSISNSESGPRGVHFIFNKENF
T1 sequence (Q61462 1-192 partner): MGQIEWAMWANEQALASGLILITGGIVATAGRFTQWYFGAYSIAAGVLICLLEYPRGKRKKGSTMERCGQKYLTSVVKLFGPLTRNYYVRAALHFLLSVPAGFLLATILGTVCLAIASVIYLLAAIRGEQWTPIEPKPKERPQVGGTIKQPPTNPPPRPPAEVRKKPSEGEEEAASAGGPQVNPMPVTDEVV

[2] = tested on: synaptosomal mitochondria; experiment: respiration of synaptosomal mitochondria (oximetry); conditions: apocynin 0-200 μM in synaptosomes
PV-interneurons = experiment: parvalbumin and GAD67 immunoreactivity in PV-interneurons in primary neuronal cultures; conditions: co-exposure with ketamine 24 h; muscimol 10 μM, C3, apocynin 0.5 mM
[3] = tested on: primary neuronal cultures; experiment: DHE oxidation (superoxide and/or hydrogen peroxide production) in primary neuronal cultures exposed to ketamine; format: cell-based, mouse

COc1cc(C(C)=O)ccc1O [apocynin, 4-hydroxy-3-methoxyacetophenone]
effect on elevated levels of superoxide in the pyramidal layer of CA1 in the aged hippocampus [1]: prevented | effect on IL-6-induced increase in superoxide (EPR) (NADPH oxidase): completely blocked | mitochondrial respiration [2]: did not affect | effect on ketamine-mediated loss of parvalbumin and GAD67 immunoreactivity in PV-interneurons (PV-interneurons): prevented; also recorded: attenuated | effect on ketamine-mediated increase in oxidized DHE ([3]; co-exposure with ketamine 0.5 μM 24 h, muscimol 10 μM, C3 20 μM, apocynin 0.5 mM): significantly reduced | effect on ketamine-mediated increase in ROS / free radical production (DHE fluorescence) ([3]; ketamine with 1 μM C3 or 500 μM apocynin for 24 h): prevented
